Measured values: patent publication US11034932B2, “Composition capable of promoting the growth of denitrifying microorganisms and uses thereof” (CHINA PETROLEUM & CHEMICAL CORPORATION, priority 2016, dated 2021)

System: denitrifying microorganisms
Test: AO wastewater treatment with promoter 1# plus additive (Example 2)
Conditions: additive (0.05-0.10 mg/L) added along with promoter 1#; process as example 1
Procedure: Hereunder the present invention will be detailed in examples. In the following examples, the COD concentration is measured with the method specified in GB11914-89 “Water Quality—Determination of Chemical Oxygen Demand—Dichromate Method”; the ammonia nitrogen concentration is measured with the method specified in GB7478-87 “Water Quality—Determination of Ammonium—Distillation and Titration Method”; the concentration of nitrite nitrogen is measured with the method specified in GB7493-87 “Water Quality—Determination of Nitrite Nitrogen—Spectrophotometric Method”; the total nitrogen concentration is measured with the method specified in GB11894-89 “Water Quality—Determination of Total Nitrogen—UV Spectrophotometric Method—Alkaline Potassium Persulfate Digestion Method”.
The wastewater is treated according to the treatment process and operating condition described in example 1, but: an additive is added in a certain amount along with the promoter 1#.
Wherein the formic acid hydroxylamine is obtained by mixing a formic acid and a hydroxylamine at 1:1 molar ratio; the acetic acid hydroxylamine is obtained by mixing an acetic acid and a hydroxylamine at 1:1 molar ratio; both of them are […] after they are prepared.

In order of rising “COD in outputted water” value:
1. O=S([O-])[O-].[Na+].[Na+] [Na2SO3]  44.3 mg/L
2. NCCCNCCCCNCCCN [Spermine]  47.9 mg/L
3. NCCCCNCCCN [Spermidine]  48.4 mg/L

In order of falling “NH3—N in outputted water” value:
1. O=S([O-])[O-].[Na+].[Na+] [Na2SO3]  10.0 mg/L
2. NCCCNCCCCNCCCN [Spermine]  9.3 mg/L
3. NCCCCNCCCN [Spermidine]  8.9 mg/L

In order of rising “NO2^—N in outputted water” value:
1. NCCCNCCCCNCCCN [Spermine]  0.1 mg/L
2. NCCCCNCCCN [Spermidine]  0.2 mg/L
3. O=S([O-])[O-].[Na+].[Na+] [Na2SO3]  0.2 mg/L

In order of rising “TN in outputted water” value:
1. O=S([O-])[O-].[Na+].[Na+] [Na2SO3]  18.2 mg/L
2. NCCCNCCCCNCCCN [Spermine]  21.3 mg/L
3. NCCCCNCCCN [Spermidine]  23.9 mg/L
